Consider one compound from patent US9175030B2, “Derivatives of avicin D and methods of making and using thereof” (priority 2012, dated 2015).

One assay relates to WSU-DLCL2. The experiment in a line: MTT growth inhibition, WSU-DLCL2. It counts as cell-based, human. As to conditions: WSU-DLCL2 cells, 72 hrs. The method, then:
(§1) The growth inhibitory effects of avicin D and oxetane derivative were measured using the MTT [3-(4,5-dimethylthiazol-2-yl)-2,5-diphenyl tetrazolium bromide] reduction assay as described in Haridas et al. (2001). Cells were cultured with varying concentrations of avicin D or oxetane in 96-well plates for 72 hrs at 37° C. At the end of 72 hrs, cells were stained with MTT for 2 hrs and then incubated with lysis buffer (20% SDS in 50% N,N-dimethylformamide) for another 6 hrs. Optical density at 570 nm was used as a measure of cell viability.
(§2) The cell lines 769P, A498, CAKI-1, and CAKI-2 are derived from primary human renal-cell cancers (RCC). A549 is a human lung adenocarcinoma epithelial cell line. B16F10 is a mouse melanoma cell line. BT474, BT 474 M1, BT549, MCF7, […], and ZR751 are breast cancer cell lines. CCRF-CEM, Jurkat, and MOLT4 are leukemia cell lines. HELA is cell line derived from cervical caner. HepG2 is a human hepatocellular liver carcinoma cell line. JeKo-1 is a mantle cell lymphoma (MCL) cell line. LnCAP is a cell line was established from a metastatic lesion of human prostatic adenocarcinoma. MM.1 and RPMI-8226 are human multiple myeloma cell lines. OVCAR3 and SKOV3 are ovarian cancer cell lines. Panc-1 is a pancreatic cancer cell line. PC3 is a prostate cancer cell line. Raji is a Burkitt's lymphoma cell line. RL is a non-Hodgkin's lymphoma cell line. […]

A further assay concerns 769P. The experiment in a line: MTT growth inhibition, 769P. The class given is cell-based, human. Conditions: 769P cells, 72 hrs. The protocol: as §1, §2
In assay [1] the target is glucocorticoid receptor (GR) (Homo sapiens, UniProt P04150). In words: GR Ser-211 phosphorylation (FIG. 4). The class given is cell-based. As to conditions: up to 16 hours.
glucocorticoid receptor (GR), sequence (P04150 whole entry): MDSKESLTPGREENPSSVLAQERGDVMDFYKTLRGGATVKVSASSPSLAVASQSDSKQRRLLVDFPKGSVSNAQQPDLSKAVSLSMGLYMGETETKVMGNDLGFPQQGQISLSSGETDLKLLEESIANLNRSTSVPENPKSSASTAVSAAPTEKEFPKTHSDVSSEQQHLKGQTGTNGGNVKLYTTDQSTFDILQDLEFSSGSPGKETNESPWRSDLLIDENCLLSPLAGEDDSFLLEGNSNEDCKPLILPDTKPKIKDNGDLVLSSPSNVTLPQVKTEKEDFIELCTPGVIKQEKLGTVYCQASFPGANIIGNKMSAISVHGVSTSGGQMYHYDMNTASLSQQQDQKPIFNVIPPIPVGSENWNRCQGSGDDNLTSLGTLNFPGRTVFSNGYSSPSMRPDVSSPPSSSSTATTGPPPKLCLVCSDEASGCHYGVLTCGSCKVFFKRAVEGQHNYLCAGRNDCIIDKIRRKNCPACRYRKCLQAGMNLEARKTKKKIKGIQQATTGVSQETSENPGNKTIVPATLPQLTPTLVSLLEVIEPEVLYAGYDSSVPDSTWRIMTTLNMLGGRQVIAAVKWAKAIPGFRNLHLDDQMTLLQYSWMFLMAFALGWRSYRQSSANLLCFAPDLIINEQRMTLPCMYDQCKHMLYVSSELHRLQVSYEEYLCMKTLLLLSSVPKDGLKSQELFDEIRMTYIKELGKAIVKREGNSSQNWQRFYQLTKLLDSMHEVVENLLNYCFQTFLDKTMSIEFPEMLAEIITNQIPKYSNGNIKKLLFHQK
Another assay relates to Panc-1. In words: MTT growth inhibition, Panc-1. The class given is cell-based. As to conditions: Panc-1 cells, 72 hrs. The method, then: as §1, §2
The test system of a further assay is chemotaxis. In words: Inhibition of chemotaxis. The class given is cell-based. Conditions: preliminary data.
The test system of the next assay is U266. In words: MTT growth inhibition, U266. As to conditions: U266 cells, 72 hrs. The class given is cell-based. The method, then:
as §1, §2

The test system of assay [2] is HMLE cells expressing TWIST. In words: Mammosphere formation, cancer stem cell model. The class given is cell-based, human. As to conditions: 60 nM, added day 7 and every 7th day, seen on day 21. The protocol:
Human mammary epithelial cells were transfected with transcription factor TWIST acquiring mesenchymal stem cell-like traits, including the ability to form mammospheres. See Cano et al., 2000; Yang et al., Cell, 2004; Mani et al., 2008, which are all incorporated herein by reference.
HMLE cells expressing TWIST were plated at 100 cells/0.1 ml in 96-well plates. The cells were cultured in MEGM media supplemented with 20 ng/mL bFGF, 10 ng/mL EGF, 4 ug/mL heparin, and 1% methyl cellulose. Formation of spheres could be seen around day 7. Avicin D/Compound 8 (60 nM) was first added to the cultures on day 7 and subsequently every 7th day. […] See FIGS. 6A-D, which show mammospheres treated with 60 nM of Avicin D or Compound 8 for fourteen days. The ability of these agents to induce cell kill in both the tumor cell population as well as the stem-like cells enhances their potential for use as a cancer therapy.

The subject of another assay is human preadipocytes. Conditions: cited from earlier work.
The subject of a further assay is B16F10. In words: MTT growth inhibition, B16F10. The class given is cell-based, mouse. Conditions: B16F10 cells, 72 hrs. The method, then: as §1, §2
A further assay relates to adiponectin. As to conditions: adipocytes; cited from earlier work.
In a further assay the test system is RL. The experiment in a line: MTT growth inhibition, RL. It counts as cell-based. Conditions: RL cells, 72 hrs. The method, then:
as §1, §2

The test system of a further assay is MM1. The experiment in a line: MTT growth inhibition, MM1. Conditions: MM1 cells, 72 hrs. It counts as cell-based, human. The method, then:
as §1, §2

The next assay relates to ZR751. In words: MTT growth inhibition, ZR751. It counts as cell-based. Conditions: ZR751 cells, 72 hrs. The method, then: as §1, §2
In another assay the test system is MCF7. In words: MTT growth inhibition, MCF7. The class given is cell-based. Conditions: MCF7 cells, 72 hrs. The protocol: as §1, §2
For another assay, the system named is A498. In words: MTT growth inhibition, A498. It counts as cell-based, human. Conditions: A498 cells, 72 hrs. The method, then:
as §1, §2

The subject of another assay is HEK293. The experiment in a line: MTT growth inhibition, HEK293. The class given is cell-based, human. As to conditions: HEK293 cells, 72 hrs. The protocol: as §1, §2
For a further assay, the system named is Hela. In words: MTT growth inhibition, Hela. It counts as cell-based. Conditions: Hela cells, 72 hrs. The method, then:
as §1, §2

The subject of the next assay is SKOV3. In words: MTT growth inhibition, SKOV3. It counts as cell-based. Conditions: SKOV3 cells, 72 hrs. The method, then: as §1, §2

Molecules are shown by their SMILES.

As a reminder, the IC50 is the concentration at which inhibition is half-maximal. Higher therefore signals weaker potency in that assay. For the compound `C=C[C@](C)(O)CC/C=C(\CO)C(=O)O[C@H]1[C@H](O)[C@@H](O)[C@H](O[C@@](C)(C=C)CC/C=C(\CO)C(=O)O[C@H]2C[C@]3(C(=O)O[C@@H]4O[C@H](CO)[C@@H](O)[C@H](O)[C@H]4O[C@@H]4O[C@@H](C)[C@H](O[C@@H]5O[C@@H](CO)[C@H](O)[C@H]5O)[C@@H](O[C@@H]5O[C@H](CO)[C@@H](O)[C@H](O)[C@H]5O)[C@H]4O)[C@H](O)C[C@]4(C)C(=CC[C@@H]5[C@@]6(C)CC[C@H](O[C@@H]7O[C@H](CO[C@@H]8O[C@H](C)[C@H](O)[C@H](O)[C@H]8O[C@@H]8OC[C@@H](O)[C@H](O)[C@H]8O)[C@@H](O)[C@H](O)[C@H]7NC(C)=O)C(C)(C)[C@@H]6CC[C@]54C)[C@@H]3CC2(C)C)O[C@@H]1C` [Avicin D], the half-inhibitory concentration (IC50) was found to be 0.52 µM in the assay with WSU-DLCL2; 0.36 µM with 769P; 0.52 µM in the assay on Panc-1; 0.3 µM in the assay on U266; 0.66 µM in the assay on B16F10; 0.31 µM in the assay on RL. Moreover, the IC50 with MM1 is 0.1 µM; in the assay with ZR751 it was 0.67 µM; in the assay with MCF7, 15.2 µM; in the assay with A498, 0.44 µM; in the assay with HEK293, 6.5 µM; with Hela, 13.2 µM. Besides, in the assay on SKOV3, 1 µM corresponded to half-maximal inhibition (IC50). The “phosphorylation of Ser-211” value in assay [1] is on record as “does not enhance phosphorylation of Ser-211 even after 16 hours”. In the assay on chemotaxis, the inhibition of chemotaxis result is “effective at inhibiting chemotaxis at picomolar and nanomolar concentrations”. In addition, the “development of mammospheres as measured by the size of the spheres” value in assay [2] is reported as “appear to inhibit the development of these spheres”. For the same compound, the “differentiation of preadipocytes to mature adipocytes” value with human preadipocytes is reported as “inhibited the differentiation of human preadipocytes to mature adipocytes”. Further, the intracellular triglyceride levels result with human preadipocytes is “reduced intracellular triglyceride levels”. For the same compound, in the assay with adiponectin, the “expression and secretion of adiponectin” value was “increased the expression and secretion of adiponectin”.
